The results in this text go back to patent US8906825B2, “Herbicidal compositions comprising 4-amino-3-chloro-5-fluoro-6-(4-chloro-2-fluoro-3-methoxyphenyl) pyridine-2-carboxylic acid or a derivative thereof and triazolopyrimidine sulfonamides” (Dow AgroSciences LLC, priority 2012, dated 2014).

Each structure is given as a SMILES string.

Common to all, as to format: in vivo
Assay [1] has as its system BRAPP (Brachiaria platyphylla (Griseb.) Nash, broadleaf signalgrass). Briefly: Postemergence foliar-applied herbicidal mixtures, direct seeded rice, greenhouse (Example I). The source says: (§1) Seeds or nutlets of the desired test plant species were planted in a soil matrix prepared by mixing a loam or sandy loam soil (e.g., 28.6 percent silt, 18.8 percent clay, and 52.6 percent sand, with a pH of about 5.8 and an organic matter content of about 1.8 percent) and calcareous grit in an 80 to 20 ratio. The soil matrix was contained in plastic pots with a volume of 1 quart and a surface area of 83.6 square centimeters (cm^2). When required to ensure good germination and healthy plants, a fungicide treatment and/or other chemical or physical treatment was applied. The plants were grown for 8-22 days in a greenhouse with an approximate 14 h photoperiod which was maintained at about 29° C. during the day and about 26° C. during the night. Nutrients (Peters Excel® 15-5-15 5-Ca 2-Mg and iron chelate) were applied in the irrigation solution as needed and water was added on a regular basis. Supplemental lighting was provided with overhead metal halide 1000-Watt lamps as necessary. The plants were employed for testing when they reached the first through fourth true leaf stage.
(§2) Treatments consisted of the acid or esters of 4-amino-3-chloro-5-fluoro-6-(4-chloro-2-fluoro-3-methoxy-phenyl)pyridine-2-carboxylic acid (Compound A), each formulated as an SC (suspension concentrate), and various herbicidal components alone and in combination. Forms of compound A were applied on an acid equivalent basis.
(§3) Other herbicidal components were applied on an active ingredient basis and included acetolactate synthase (ALS)-inhibiting herbicides (sulfonamide chemical class) penoxsulam formulated as Grasp® SC, diclosulam formulated as Strongarm®, and cloransulam-methyl formulated as FirstRate®, flumetsulam formulated as Flumetsulam WG, and metosulam formulated as Eclipse®.
(§4) Treatment requirements were calculated based upon the rates being tested, the concentration of active ingredient or acid equivalent in the formulation, and a 12 mL application volume at a rate of 187 L/ha.
(§5) For treatments comprised of formulated compounds, measured amounts of compounds were placed individually in 25 mL glass vials and diluted in a volume of 1.25% (v/v) Agri-Dex® crop oil concentrated to obtain 12× stock solutions. […] Application solutions were prepared by adding an appropriate amount of each stock solution (e.g., 1 mL) and diluted to the appropriate final concentrations with the addition of 10 mL of an aqueous mixture of 1.25% (v/v) crop oil concentrate so that the final spray solutions contained 1.25+/−0.05% (v/v) crop oil concentrate.
(§6) All stock solutions and applications solutions were visually inspected for compound compatibility prior to application. Spray solutions were applied to the plant material with an overhead Mandel track sprayer equipped with an 8002E nozzle calibrated to deliver 187 L/ha over an application area of 0.503 m^2 at a spray height of 18 to 20 inches (46 to 50 cm) above average plant canopy height. Control plants were sprayed in the same manner with the solvent blank.
(§7) The treated plants and control plants were placed in a greenhouse as described above and watered by sub-irrigation to prevent wash-off of the test compounds. After approximately 3 weeks, the condition of the test plants as compared with that of the untreated plants was determined visually and scored on a scale of 0 to 100 percent where 0 corresponds to no injury or growth inhibition and 100 corresponds to complete kill.
(§8) Colby's equation was used to determine the herbicidal effects expected from the mixtures (Colby, S. R. 1967. Calculation of the synergistic and antagonistic response of herbicide combinations. Weeds 15:20-22.).
(§9) The following equation was used to calculate the expected activity of mixtures containing two active ingredients, A and B: Expected=A+B−(A×B/100)

For assay [2], the system named is ECHCG (Echinochloa crusgalli (L.) Beauv., barnyardgrass). The assay is described as above.
Text: as §1, §2, §3, §4, §5, §6, §7, §8, §9

The test system of assay [3] is IPOHE (Ipomoea hederacea Jacq., ivyleaf morningglory). The description is as above.
Text: as §1, §2, §3, §4, §5, §6, §7, §8, §9

The test system of assay [4] is LEFCH (Leptochloa chinensis (L.) Nees, Chinese sprangletop). Described as above.
Text: as §1, §2, §3, §4, §5, §6, §7, §8, §9

The test system of assay [5] is CYPRO (Cyperus rotundus L., purple nutsedge). Briefly: In-water applied herbicidal mixtures, transplanted paddy rice, greenhouse (Example II). The procedure:
(§10) Weed seeds or nutlets of the desired test plant species were planted in puddled soil (mud) prepared by mixing a shredded, non-sterilized mineral soil (50.5 percent silt, 25.5 percent clay, and 24 percent sand, with a pH of about 7.6 and an organic matter content of about 2.9 percent) and water at a 1:1 volumetric ratio. The prepared mud was dispensed in 365 mL aliquots into 16-ounce (oz.) non-perforated plastic pots with a surface area of 86.59 square centimeters (cm^2) leaving a headspace of 3 centimeters in each pot. Mud was allowed to dry overnight prior to planting or transplanting. Rice seeds were planted in Sun Gro MetroMix® 306 planting mixture, which typically has a pH of 6.0 to 6.8 and an organic matter content of about 30 percent, in plastic plug trays. Seedlings at the second or third leaf stage of growth were transplanted into 840 mL of mud contained in 32-oz. non-perforated plastic pots with a surface area of 86.59 cm^2 4 days prior to herbicide application. The paddy was created by filling the headspace of the pots with 2.5 to 3 cm of water. When required to ensure good germination and healthy plants, a fungicide treatment and/or other chemical or physical treatment was applied. The plants were grown for 4-22 days in a greenhouse with an approximate 14 h photoperiod which was maintained at about 29′C during the day and about 26° C. during the night. Nutrients were added as Osmocote® (19:6:12, N:P:K+minor nutrients) at 2 g per 16-oz. pot and 4 g per 32-oz. pot. Water was added on a regular basis to maintain the paddy flood, and supplemental lighting was provided with overhead metal halide 1000-Watt lamps as necessary. The plants were employed for testing when they reached the first through fourth true leaf stage.
(§11) Treatments consisted of the acid or esters of 4-amino-3-chloro-5-fluoro-6-(4-chloro-2-fluoro-3-methoxy-phenyl)pyridine-2-carboxylic acid (compound A) each formulated as an SC and various herbicidal components alone and in combination. Forms of compound A were applied on an acid equivalent basis.
(§12) Other herbicidal components were applied on an active ingredient basis and included acetolactate synthase (ALS)-inhibiting herbicides (sulfonamide chemical class) penoxsulam formulated as Grasp® SC (GF-443), diclosulam formulated as Strongarm®, and cloransulam-methyl formulated as FirstRate®.
(§13) Treatment requirements for each compound or herbicidal component were calculated based upon the rates being tested, the concentration of active ingredient or acid equivalent in the formulation, an application volume of 2 mL per component per pot, and an application area of 86.59 cm^2 per pot.
(§14) For formulated compounds, a measured amount was placed in an individual 100 or 200 mL glass vial and was dissolved in a volume of 1.25% (v/v) Agri-Dex® crop oil concentrate to obtain each application solution.
(§15) Applications were made by injecting with a pipetter appropriate amounts of the application solutions, individually and sequentially, into the aqueous layer of the paddy. Control plants were treated in the same manner with the solvent blank. Applications were made so that all treated plant material received the same concentrations of acetone and crop oil concentrate.
(§16) The treated plants and control plants were placed in a greenhouse as described above and water was added as needed to maintain a paddy flood. After approximately 3 weeks the condition of the test plants as compared with that of the untreated plants was determined visually and scored on a scale of 0 to 100 percent where 0 corresponds to no injury or growth inhibition and 100 corresponds to complete kill.
as §8, §9

In assay [6] the test system is ECHCG (Echinochloa crusgalli (L.) Beauv., barnyardgrass). The description is as above. Conditions: Diclosulam 6.62 gai/ha. The procedure:
as §10, §11, §12, §13, §14, §15, §16, §8, §9

In assay [7] the test system is CYPIR (Cyperus iria L., rice flatsedge). The assay can be described thus: Postemergence foliar-applied herbicidal mixtures, direct seeded rice, greenhouse (Example I).
Text: as §1, §2, §3, §4, §5, §6, §7, §8, §9

Assay [8] concerns CIRAR (Cirsium arvense (L.) Scop., Canada thistle). The assay can be described thus: Postemergence foliar-applied herbicidal mixtures, cereal crops, greenhouse (Example III). Conditions: Pyroxsulam 3.75 gai/ha, visual score 0 to 100 percent after 20-22 days. The procedure:
Seeds of the desired test plant species were planted in Sun Gro MetroMix® 306 planting mixture, which typically has a pH of 6.0 to 6.8 and an organic matter content of about 30 percent, in plastic pots with a surface area of 103.2 square centimeters (cm^2). […] The plants were grown for 7-36 days in a greenhouse with an approximate 14 hour photoperiod which was maintained at about 18° C. during the day and about 17° C. during the night. Nutrients and water were added on a regular basis and supplemental lighting was provided with overhead metal halide 1000-Watt lamps as necessary. The plants were employed for testing when they reached the second or third true leaf stage.
Treatments consisted of the benzyl ester of 4-amino-3-chloro-5-fluoro-6-(4-chloro-2-fluoro-3-methoxy-phenyl)pyridine-2-carboxylic acid (Compound A), formulated as an SC, a second cereal herbicide alone and then both in combination.
Other herbicidal components were applied on an active ingredient basis and included acetolactate synthase (ALS)-inhibiting herbicides (sulfonamide chemical class) florasulam formulated as Derby® and pyroxsulam formulated as PowerFlex®. A measured aliquot of benzyl ester of 4-amino-3-chloro-5-fluoro-6-(4-chloro-2-fluoro-3-methoxy-phenyl)pyridine-2-carboxylic acid (Compound A) was placed in 25 milliliter (mL) glass vials and diluted in a volume of 1.25% (v/v) AgriDex® crop oil concentrated to obtain a stock solution. Compound requirements are based upon a 12 mL application volume at a rate of 187 liters per hectare (L/ha). […] Formulated compounds were applied to the plant material with an overhead Mandel track sprayer equipped with an 8002E nozzle calibrated to deliver 187 L/ha over an application area of 0.503 square meters (m^2) at a spray height of 18 inches (46 cm) above average plant canopy. Control plants were sprayed in the same manner with the solvent blank.
The treated plants and control plants were placed in a greenhouse as described above and watered by sub-irrigation to prevent wash-off of the test compounds. After 20-22 days, the condition of the test plants as compared with that of the control plants was determined visually and scored on a scale of 0 to 100 percent where 0 corresponds to no injury and 100 corresponds to complete kill.
as §8, §9

Setting [9] is: Compound A n-Butyl Ester 4.38 gae/ha.
The mark [10] stands for this setting: Compound A n-Butyl Ester 8.75 gae/ha.
The mark [11] stands for this setting: Compound A n-Butyl Ester 17.5 gae/ha.

For the compound `CCCCOC(=O)c1nc(-c2ccc(Cl)c(OC)c2F)c(F)c(N)c1Cl` [Compound A n-Butyl Ester], the “Visual Weed Control (%) - 21 DAA BRAPP Obs” value is 0% in assay [1] (setting [9]) and 40% in assay [1] (setting [10]). Also, the entries for the “Visual Weed Control (%) - 27 DAA ECHCG Obs” value in assay [2] (setting [9]), in assay [2] (setting [10]) and in assay [2] (setting [11]) were 0%, 0% and 90%, respectively. Further, the “Visual Weed Control (%) - 27 DAA IPOHE Obs” value in assay [3] (setting [9]), in assay [3] (setting [10]) and in assay [3] (setting [11]) was 10% in each case.
As to `CCOc1nc(F)cc2nc(S(=O)(=O)Nc3c(Cl)cccc3Cl)nn12` [Diclosulam, N-(2,6-dichlorophenyl)-5-ethoxy-7-fluoro[1,2,4]triazolo[1,5-c]pyrimidine-2-sulfonamide, reference compound], the “Visual Weed Control (%) - 20 DAA LEFCH Obs” value is on record as 0% in assay [4] (Diclosulam 6.62 gai/ha, Table 4); 0% in assay [4] (Diclosulam 6.62 gai/ha, Table 5); 20% in assay [4] (Diclosulam 13.25 gai/ha, Table 5). Also, the “Visual Weed Control (%) - 21 DAA CYPRO Obs” value in assay [5] (Diclosulam 6.62 gai/ha) and in assay [5] (Diclosulam 13.25 gai/ha) was 80% each time. In assay [6], the “Visual Weed Control (%) - 21 DAA ECHCG Obs” value is given as 70%.
Turning to `Cc1ccn2nc(S(=O)(=O)Nc3c(F)cccc3F)nc2n1` [Flumetsulam, N-(2,6-difluorophenyl)-5-methyl[1,2,4]triazolo[1,5-a]pyrimidine-2-sulfonamide, reference compound], the “Visual Weed Control (%) - 22 DAA BRAPP Obs” value in assay [1] (Flumetsulam 6.25 gai/ha) is 30%. For the same compound, the figures for the “Visual Weed Control (%) - 22 DAA CYPIR Obs” value in assay [7] (Flumetsulam 6.25 gai/ha), in assay [7] (Flumetsulam 12.5 gai/ha) and in assay [7] (Flumetsulam 25 gai/ha) were 20%, 55% and 30%, respectively.
`COc1cc(OC)n2nc(S(=O)(=O)Nc3c(Cl)ccc(C)c3Cl)nc2n1` [Metosulam, N-(2,6-dichloro-3-methylphenyl)-5,7-dimethoxy[1,2,4]triazolo[1,5-a]pyrimidine-2-sulfonamide, reference compound]: in assay [4] (Metosulam 6.25 gai/ha), the “Visual Weed Control (%) - 22 DAA LEFCH Obs” value came to 15%.
Take `COc1cc(OC)n2nc(NS(=O)(=O)c3c(C(F)(F)F)ccnc3OC)nc2n1` [Pyroxsulam, N-(5,7-dimethoxy[1,2,4]triazolo[1,5-a]pyrimidin-2-yl)-2-methoxy-4-(trifluoromethyl)-3-pyridinesulfonamide, reference compound]: the “CIRAR Obs” value in assay [8] was 60%.
